Assay results published in patent publication US20160256466A1, “PI3K INHIBITOR FOR TREATMENT OF RESPIRATORY DISEASE” (GLAXOSMITHKLINE INTELLECTUAL PROPERTY DEVELOPMENT LIMITED, priority 2013, published 2016).
Where a name gives a salt, the structure may show the parent alone.

Experiments:
[1] = tested on: lung gene expression; assay: Affymetrix GeneChip lung gene expression in S. Pneumoniae-infected mice; format: in vivo, C57BL/6 mice; details: 0.2 mg/kg intranasal twice daily; lungs at various timepoints after S. Pneumoniae-infection; genes significantly altered (minimum 1.5 fold-change; p<0.05) compared to vehicle controls; n=6
Method: (§1) Germ-free C57BL/6 male and female mice aged 10-12 weeks were intranasally administered with 0.2%Tween-80/saline vehicle or 0.2 mg/kg micronized 6-(1H-indol-4-yl)-4-(5-{[4-(1-methylethyl)-1-piperazinyl]methyl}-1,3-oxazol-2-yl)-1H-indazole hydrochloride in the same vehicle. Compound dosing was carried out twice daily for eleven days under anaesthesia using 3% isoflurane for induction and 2% isoflurane for maintenance. At the start of day two, and one hour after administering 6-(1H-indol-4-yl)-4-(5-{[4-(1-methylethyl)-1-piperazinyl]methyl}-1,3-oxazol-2-yl)-1H-indazole hydrochloride or vehicle, mice were anaesthetized with isoflurane as above and infected intranasally with 1×10^7 CFU of S. pneumoniae strain TIGR4. S. Pneumoniae was obtained and prepared as described previously (see, for example, Infect. Immun. December 2011; 79(12): 4965-4976) and given in an inoculum of 50 μl PBS per mouse. Mice were monitored three times daily and assessed using a defined mortality-endpoint, where mice displaying three or more of the limiting clinical signs stated in Home Office Project Licence PPL 70/7661 were culled.
Each band corresponds to a single probe and intensity signifies fold change, as indicated in the legend.

[2] = tested on: S. pneumoniae strain TIGR4; assay: Streptococcus pneumoniae infection in mice, survival by defined mortality-endpoint; format: in vivo, C57BL/6 mice; details: 0.2 mg/kg micronized, intranasal, twice daily for eleven days; infected intranasally with 1×10^7 CFU; compared to vehicle controls; n=60; Mantel-Cox test **p<0.005
Method: as §1

## CC(C)N1CCN(Cc2cnc(-c3cc(-c4cccc5[nH]ccc45)cc4[nH]ncc34)o2)CC1 [6-(1H-Indol-4-yl)-4-(5-{[4-(1-methylethyl)-1-piperazinyl]methyl}-1,3-oxazol-2-yl)-1H-indazole hydrochloride]
[1]
  lung gene expression: altered lung gene expression
[2]
  defined mortality-endpoint (percentage survival): reduced a defined mortality-endpoint
